How the values were obtained:
[1] = biological target: T1, Sulfide:quinone oxidoreductase, mitochondrial (Homo sapiens, UniProt Q9Y6N5); assay: Inhibition of SQOR (unknown origin) at 10 uM using sodium sulfide, sodium sulfite and coenzyme Q1 by UV absorbance method relative to control
Target sequence in this assay (Q9Y6N5 whole entry, looked up): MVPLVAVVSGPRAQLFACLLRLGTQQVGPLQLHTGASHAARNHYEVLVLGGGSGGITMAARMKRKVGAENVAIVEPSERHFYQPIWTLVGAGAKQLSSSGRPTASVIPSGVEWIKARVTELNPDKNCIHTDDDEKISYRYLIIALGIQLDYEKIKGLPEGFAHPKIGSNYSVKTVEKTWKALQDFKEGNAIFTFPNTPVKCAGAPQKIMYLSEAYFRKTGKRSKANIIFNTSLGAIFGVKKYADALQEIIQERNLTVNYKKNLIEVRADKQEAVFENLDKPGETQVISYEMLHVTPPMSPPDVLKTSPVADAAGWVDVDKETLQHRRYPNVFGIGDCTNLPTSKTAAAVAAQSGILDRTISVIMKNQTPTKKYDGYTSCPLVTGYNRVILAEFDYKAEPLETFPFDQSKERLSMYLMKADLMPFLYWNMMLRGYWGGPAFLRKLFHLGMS

[2] = biological target: T1, Sulfide:quinone oxidoreductase, mitochondrial; assay: Inhibition of SQOR (unknown origin) using sodium sulfide, sodium sulfite and coenzyme Q1 by UV absorbance method
Target sequence in this assay (Q9Y6N5 whole entry): as the sequence (Q9Y6N5 whole entry, looked up) above

## CCCCCCCCCCCC(=O)n1nc(Br)c(=O)[nH]c1=O
[1]
  inhibition: > 50%

## CC(C)C(=O)n1nc(Br)c(=O)[nH]c1=O
[1]
  inhibition: 10 to 50%

## CCCCCCn1cc(F)c(=O)n(CCCCCC)c1=O
[1]
  inhibition: > 50%
[2]
  IC50: < 20 µM

## CCCCCCCC(=O)n1c(I)cc(=O)[nH]c1=O
[1]
  inhibition: 10 to 50%
[2]
  IC50: < 20 µM

## CC(C)CCCn1cc(F)c(=O)n(CCCC(C)C)c1=O
[1]
  inhibition: 10 to 50%

## CCCNC(=O)n1cc(F)c(=O)[nH]c1=O
[1]
  inhibition: 6%

## CCCCCCCCn1cc(F)c(=O)n(CCCCCCCC)c1=O
[1]
  inhibition: 10 to 50%
[2]
  IC50: < 20 µM

## CCCCCCCCCC(=O)n1nc(Br)c(=O)[nH]c1=O
[1]
  inhibition: > 50%
[2]
  IC50: 100 to 500 µM

## O=C(CCC1CCCC1)n1nc(Br)c(=O)[nH]c1=O
[1]
  inhibition: > 50%
[2]
  IC50: < 20 µM

## O=c1c(F)cn(CCC2CCCCC2)c(=O)n1CCC1CCCCC1
[1]
  inhibition: 10 to 50%

## CCCCCn1c(Cl)cc(=O)n(CCCCC)c1=O
[1]
  inhibition: 10 to 50%

## O=c1c(F)cn(CCc2ccccc2)c(=O)n1CCc1ccccc1
[1]
  inhibition: 10 to 50%

## CCCCCCC(=O)n1cc(F)c(=O)n(C)c1=O
[1]
  inhibition: 10 to 50%

## CCCCCn1cc(F)c(=O)n(CCCCC)c1=O
[1]
  inhibition: > 50%
[2]
  IC50: < 20 µM

## CCCCCCCCCCCCCC(=O)n1nc(Br)c(=O)[nH]c1=O
[1]
  inhibition: > 50%

## CCCCCCCCNC(=O)n1cc(Cl)c(=O)[nH]c1=O
[1]
  inhibition: > 50%
[2]
  IC50: < 20 µM

## AUROTHIOGLUCOSE [listing 1 of 2 here]
[2]
  IC50: 0.925 to 0.93 µM
  pIC50: 6.034

## CCCCCCCC(=O)n1cc(Cl)c(=O)[nH]c1=O
[1]
  inhibition: 10 to 50%

## CCCCCn1c(C)c(F)c(=O)n(CCCCC)c1=O
[1]
  inhibition: > 50%
[2]
  IC50: < 20 µM

## CCCCCCCC(=O)n1nc(Br)c(=O)[nH]c1=O
[1]
  inhibition: > 50%
[2]
  IC50: < 20 µM

## CCCCCC(=O)n1nc(Br)c(=O)[nH]c1=O
[1]
  inhibition: 10 to 50%
[2]
  IC50: < 20 µM

## CCCCCCCCNC(=O)n1cc(F)c(=O)[nH]c1=O
[1]
  inhibition: 10 to 50%
[2]
  IC50: < 20 µM

## O=C(NCc1ccccc1)n1cc(F)c(=O)[nH]c1=O
[1]
  inhibition: 10 to 50%

## AUROTHIOGLUCOSE [listing 2 of 2 here]
[1]
  inhibition: 95 to 100%

## O=C(NCCc1ccccc1)n1cc(F)c(=O)[nH]c1=O
[1]
  inhibition: 7%

## O=C(CC1CCCCC1)n1nc(Br)c(=O)[nH]c1=O
[1]
  inhibition: > 50%
[2]
  IC50: < 20 µM

## CCCCCCCC(=O)n1c(Cl)cc(=O)[nH]c1=O
[1]
  inhibition: 10 to 50%
[2]
  IC50: < 20 µM

## CCCCCCCn1cc(F)c(=O)n(CCCCCCC)c1=O
[1]
  inhibition: > 50%
[2]
  IC50: < 20 µM

## O=C(C1CCCCC1)n1nc(Br)c(=O)[nH]c1=O
[1]
  inhibition: > 50%
[2]
  IC50: < 20 µM

## CCCCCCCC(=O)n1nc(C)c(=O)[nH]c1=O
[1]
  inhibition: 10 to 50%
[2]
  IC50: 20 to 100 µM

## CCCCCCNC(=O)n1cc(F)c(=O)[nH]c1=O [CARMOFUR]
[1]
  inhibition: 10 to 50%
[2]
  IC50: 20 to 100 µM

## CCCCCCCCn1c(C)c(F)c(=O)n(CCCCCCCC)c1=O
[1]
  inhibition: 10 to 50%
[2]
  IC50: < 20 µM

## CCCCCCCC(=O)n1c(C)c(Br)c(=O)[nH]c1=O
[1]
  inhibition: 10 to 50%
[2]
  IC50: < 20 µM

## O=C(c1ccccc1)n1nc(Br)c(=O)[nH]c1=O
[1]
  inhibition: 10 to 50%

## CCCCCCCC(=O)n1cc(Br)c(=O)[nH]c1=O
[1]
  inhibition: 10 to 50%
[2]
  IC50: 20 to 100 µM

## CCCCCCCC(=O)n1cc(F)c(=O)[nH]c1=O
[1]
  inhibition: 3%
